From patent publication US6586419B1, “Phototherapeutic inactivation of ocular viruses” (PDT Systems, Inc., priority 1997, dated 2003)
“And” between values parts separate entries of the source, which are not always exact repeats. Identical values can stand only once.

How the values were obtained:
[1] = tested on: cell-free Herpes simplex virus (HSV); assay: Inactivation of cell-free HSV by SnET2 and 660 nm light (viral infectivity/titer); format: cell-based
Experimental: The infectivity of cell-free HSV exposed to SnET2 doses ranging from 10 μg/mL to 0.1 μg/mL and 660 nm light doses of 1.56 J/cm^2 are shown in Table 1.
The infectivity of cell-free HSV exposed to 0.1 μg/mL SnET2 and light doses ranging from 1.56 J/cm^2 to 25 J/cm^2 are shown below in FIG. 2.
(§1) To inactivate virus from a frozen viral stock with SnET2 and light doses, the following procedure was employed. Following light treatment, undiluted virus and drug/virus mixture were diluted 10-fold up to 1:10^6. All dilutions were used to infect sub-confluent, heat-shocked cultures of a cell line plated in tissue cultures of 24 well plate in triplicates. The infected cultures were treated with antibody against the major viral capside protein. An alkaline phosphatase labeled antibody to mouse IgG was then added followed by the alkaline phosphatase substrate. This produced a colored reaction which can be monitored microscopically in positive wells. The infected cells were characterized by a dark purple coloration in the nucleus. Viral titer or viral infectivity was determined by the last viral concentration that gave at least one infected cell per well.

cell-associated HSV = assay: Inactivation of cell-associated HSV by SnET2 and light (viral infectivity/titer); format: cell-based, Herpes simplex virus; details: for viral infectivity (viral titer): LIGHT (52 mW/cm^2, 1.56 J/cm^2)
cell associated CMV = assay: Inactivation of cell-associated CMV by SnET2 and light (viral infectivity/titer); format: cell-based, cytomegalovirus; details: for viral infectivity (viral titer): LIGHT (52 mW/cm^2, 1.56 J/cm^2)
Experimental: as §1, with “capside” left out

[2] = daily systemic intravenous administration; cited from earlier work
[3] = tested on: cytomegalovirus (CMV) retinitis; details: AIDS patients with CMV retinitis on anti-HIV and anti-CMV therapy; cited from earlier work

## CCOC(=O)C1=Cc2c3nc(cc4nc(cc5[n-]c(cc6[n-]c2c(C)c6CC)c(C)c5CC)C(C)=C4CC)[C@@H](C)[C@]13CC.[Cl-].[Cl-].[Sn] (racemic) [SnET2, tin ethyl etiopurpurin]
[1]; 0.1 μg/mL, 660 nm LIGHT (26 mW/cm^2, 1.56 J/cm^2)
  viral infectivity (viral titer): 10^3
[1]; 0.1 μg/mL, DARK
  viral infectivity (viral titer): 10^6
  viral infectivity (viral titer), light dose response: 10^6
[1]; 0.1 μg/mL, Light 26 mW/cm^2, 1.56 J/cm^2
  viral infectivity (viral titer), light dose response: 10^3
[1]; 0.1 μg/mL, Light 26 mW/cm^2, 3.12 J/cm^2
  viral infectivity (viral titer), light dose response: <10^3
[1]; 0.1 μg/mL, Light 26 mW/cm^2, 6.24 J/cm^2
  viral infectivity (viral titer), light dose response: <10^2
[1]; 0.1 μg/mL, Light 26 mW/cm^2, 12.5 J/cm^2
  viral infectivity (viral titer), light dose response: <10^1
[1]; 0.1 μg/mL, Light 26 mW/cm^2, 25 J/cm^2
  viral infectivity (viral titer), light dose response: <10^1
[1]; 1 μg/mL, 660 nm LIGHT (26 mW/cm^2, 1.56 J/cm^2)
  viral infectivity (viral titer): <10^1
[1]; 1 μg/mL, DARK
  viral infectivity (viral titer): 10^6
[1]; 10 μg/mL to 0.1 μg/mL, no light
  dark toxicity: No dark toxicity was observed
[1]; 10 μg/mL, 660 nm LIGHT (26 mW/cm^2, 1.56 J/cm^2)
  viral infectivity (viral titer): <10^1
[1]; 10 μg/mL, DARK
  viral infectivity (viral titer): 10^6
[1]; SnET2 and light, cell-free HSV
  inactivation of virus in vitro (summary): complete inactivation
[1]; drug dose 0.1 μg/mL, light dose 1.56 J/cm^2, 660 nm
  inactivation of the virus (partial response): 3 log10
[1]; drug dose 1 μg/mL, light dose 1.56 J/cm^2, 660 nm
  inactivation of the virus (complete inactivation): > 5 log10
[1]; drug dose 10 μg/mL, light dose 1.56 J/cm^2, 660 nm
  inactivation of the virus (complete inactivation): > 5 log10
cell-associated HSV; 1 μg/mL
  viral infectivity (viral titer): 10^3
cell-associated HSV; 5 μg/mL
  viral infectivity (viral titer): <10^3
cell-associated HSV; SnET2 and light, cell associated HSV
  inactivation of virus in vitro (summary): complete inactivation
Cell associated CMV; 1 μg/mL, CMV 1:2
  viral infectivity (viral titer): >10^3
Cell associated CMV; 1 μg/mL, CMV 1:10, two values given
  viral infectivity (viral titer): < 10^2 and 10^4
Cell associated CMV; 5 μg/mL, CMV 1:2
  viral infectivity (viral titer): >10^3
Cell associated CMV; 5 μg/mL, CMV 1:10, two values given
  viral infectivity (viral titer): < 10^2 and 10^3
Cell associated CMV; SnET2 and light, cell associated CMV
  inactivation of virus in vitro (summary): complete inactivation
Cell associated CMV; drug dose 1-10 μg/mL, light dose 15.6 J/cm^2
  inactivation (complete inactivation): 2-5 log10

## Nc1nc2c(ncn2COCCO)c(=O)[nH]1 [anywhere, acyclovir]
[2]
  systemic toxicity: causing renal toxicity

## O=C(O)P(=O)(O)O [foscarnet]
[3]
  median survival: 12.6 months
[2]
  systemic toxicity: causing renal toxicity

## Nc1nc(O)c2ncn(COC(CO)CO)c2n1 [ganciclovir]
[3]
  median survival: 8.5 months
[2]
  systemic toxicity: suppressing the bone marrow
